Columns and labels:
Format in all cases: cell-based, mouse
[1] = system: α7 integrin (LacZ reporter in α7βgal+/− myoblasts); assay: Myoblast α7+/LacZ integrin FDG assay (Burkin assay in myoblasts, 96-well); details: α7+/LacZ myoblasts, 96-well
[2] = system: α7 integrin (LacZ reporter in α7+/LacZ myotubes); assay: Myotube α7 integrin FDG assay (Burkin assay in myotubes, 96-well); details: myotubes
[3] = system: β-galactosidase in CMV-LacZ C2C12 myotubes; assay: CMV-LacZ secondary screen in C2C12 myotubes (β-Gal stabilizing assay); details: for CMV-LACZ in Myotubes, signal relative to DMSO: C2C12 CMV-LacZ myotubes, fold relative to DMSO; for CMV-LACZ in Myotubes (β-galactosidase activity relative to DMSO): CMV-LacZ C2C12 myotubes, 96-well format
Summary of the method: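 First, C2C12 myoblasts were transfected with a linearized CMV-LACZ vector and clonal lines selected by FDG β-gal assay. Then cells were exposed to compounds at 0.5, 1, 5, 10, 20 and 40 μM in 96-well format, two replicates each, and β-gal measured.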

Row | SMILES | Burkin Assay in Myoblasts, value relative to DMSO ([1]; 0.5 uM) | Burkin Assay in Myoblasts, value relative to DMSO ([1]; 1 uM) | Burkin Assay in Myoblasts, value relative to DMSO ([1]; 5 uM) | Burkin Assay in Myoblasts, value relative to DMSO ([1]; 10 uM) | Burkin Assay in Myoblasts, value relative to DMSO ([1]; 20 uM) | Burkin Assay in Myoblasts, value relative to DMSO ([1]; 40 uM) | Burkin Assay in Myotubes (signal relative to DMSO) ([2]; 0.5 uM) | Burkin Assay in Myotubes (signal relative to DMSO) ([2]; 1 uM) | Burkin Assay in Myotubes (signal relative to DMSO) ([2]; 5 uM) | Burkin Assay in Myotubes (signal relative to DMSO) ([2]; 10 uM) | Burkin Assay in Myotubes (signal relative to DMSO) ([2]; 20 uM) | Burkin Assay in Myotubes (signal relative to DMSO) ([2]; 40 uM) | CMV-LACZ in Myotubes, signal relative to DMSO ([3]; 5 uM) | CMV-LACZ in Myotubes, signal relative to DMSO ([3]; 10 uM) | CMV-LACZ in Myotubes, signal relative to DMSO ([3]; 20 uM) | CMV-LACZ in Myotubes, signal relative to DMSO ([3]; 40 uM) | Burkin Assay in Myoblasts, signal relative to DMSO ([1]; 0.5 uM) | Burkin Assay in Myoblasts, signal relative to DMSO ([1]; 1 uM) | Burkin Assay in Myoblasts, signal relative to DMSO ([1]; 5 uM) | Burkin Assay in Myoblasts, signal relative to DMSO ([1]; 10 uM) | other results
1 | O=Cc1cn(Cc2ccc(F)cc2Cl)c2ccccc12 [MLS000676974-01] | 1.105 | 1.137 | 0.99 | 1.099 | 0.6673 | 0.5184 | 0.9171 | 0.9021 | 0.7009 | 0.5994 | 0.9758 | 0.5447 | 1.077 | 0.4574 | 1.083 | 0.46 |  |  |  |  | 
2 | O=c1oc2c(-c3cccc(F)c3)cc(O)cc2s1 [MLS000680049-01] |  |  |  |  |  |  |  |  |  |  |  |  | 1.127 | 1.106 | 1.4405 | 0.4315 | 0.9998 | 1.103 | 0.9693 | 0.9727 | Burkin Assay in Myoblasts, signal relative to DMSO ([1]; 20 uM): 0.7493; Burkin Assay in Myoblasts, signal relative to DMSO ([1]; 40 uM): 0.6354; Burkin Assay in Myotubes, α7 integrin LacZ reporter signal relative to DMSO ([2]; 0.5 uM): 0.8875; Burkin Assay in Myotubes, α7 integrin LacZ reporter signal relative to DMSO ([2]; 1 uM): 1.056; Burkin Assay in Myotubes, α7 integrin LacZ reporter signal relative to DMSO ([2]; 5 uM): 1.047; Burkin Assay in Myotubes, α7 integrin LacZ reporter signal relative to DMSO ([2]; 10 uM): 1.22; Burkin Assay in Myotubes, α7 integrin LacZ reporter signal relative to DMSO ([2]; 20 uM): 0.8731; Burkin Assay in Myotubes, α7 integrin LacZ reporter signal relative to DMSO ([2]; 40 uM): 0.4379
3 | COc1ccc(S(=O)(=O)N(NC2=NS(=O)(=O)c3ccccc32)C(=O)C(C)C)cc1 [MLS000682883-01] |  |  |  |  |  |  |  |  |  |  |  |  | 0.9333 | 1.084 | 1.087 | 0.8967 | 0.9476 | 0.9633 | 1.011 | 0.9192 | Burkin Assay in Myoblasts, signal relative to DMSO ([1]; 20 uM): 0.8269; Burkin Assay in Myoblasts, signal relative to DMSO ([1]; 40 uM): 0.7379; Burkin Assay in Myotubes, α7 integrin LacZ reporter signal relative to DMSO ([2]; 0.5 uM): 0.8116; Burkin Assay in Myotubes, α7 integrin LacZ reporter signal relative to DMSO ([2]; 1 uM): 1.095; Burkin Assay in Myotubes, α7 integrin LacZ reporter signal relative to DMSO ([2]; 5 uM): 0.9936; Burkin Assay in Myotubes, α7 integrin LacZ reporter signal relative to DMSO ([2]; 10 uM): 1.01; Burkin Assay in Myotubes, α7 integrin LacZ reporter signal relative to DMSO ([2]; 20 uM): 1.102; Burkin Assay in Myotubes, α7 integrin LacZ reporter signal relative to DMSO ([2]; 40 uM): 1.094
4 | Cc1ccccc1C(=O)Nc1nnc(SC(C)C)s1 [MLS000683174-01] | 1.02 | 0.9176 | 1.02 | 1.014 | 1.028 | 0.8059 | 1.145 | 0.9165 | 1.007 | 0.8907 | 1.081 | 0.9864 | 1.156 | 1.0866 | 1.035 | 1.238 |  |  |  |  | 
5 | CC1CCCCN1c1ncnc(N)c1[N+](=O)[O-] (stereo not drawn) [MLS000683234-01] |  |  |  |  |  |  |  |  |  |  |  |  | 0.8204 | 0.8111 | 0.6952 | 0.93 | 1.187 | 0.8341 | 1.134 | 1.152 | Burkin Assay in Myoblasts, signal relative to DMSO ([1]; 20 uM): 1.067; Burkin Assay in Myoblasts, signal relative to DMSO ([1]; 40 uM): 1.21; Burkin Assay in Myotubes, α7 integrin LacZ reporter signal relative to DMSO ([2]; 0.5 uM): 0.9165; Burkin Assay in Myotubes, α7 integrin LacZ reporter signal relative to DMSO ([2]; 1 uM): 1.053; Burkin Assay in Myotubes, α7 integrin LacZ reporter signal relative to DMSO ([2]; 5 uM): 1.091; Burkin Assay in Myotubes, α7 integrin LacZ reporter signal relative to DMSO ([2]; 10 uM): 1.273; Burkin Assay in Myotubes, α7 integrin LacZ reporter signal relative to DMSO ([2]; 20 uM): 1.414; Burkin Assay in Myotubes, α7 integrin LacZ reporter signal relative to DMSO ([2]; 40 uM): 1.631
6 | CCCC(=O)Nc1ccccc1NC(=O)c1ccc(OCC)cc1 [MLS000685139-01] | 0.8234 | 0.6285 | 0.8416 | 0.776 | 0.9893 | 0.9848 | 0.8703 | 0.9202 | 1.128 | 1.24 | 1.102 | 1.267 |  |  |  |  |  |  |  |  | CMV-LACZ in Myotubes (β-galactosidase activity relative to DMSO) ([3]; 5 uM): 0.9362; CMV-LACZ in Myotubes (β-galactosidase activity relative to DMSO) ([3]; 10 uM): 1.036; CMV-LACZ in Myotubes (β-galactosidase activity relative to DMSO) ([3]; 20 uM): 1.031; CMV-LACZ in Myotubes (β-galactosidase activity relative to DMSO) ([3]; 40 uM): 0.9387
7 | Cc1ccc(NCc2nnc(SCC(=O)Nc3nnc(C)s3)n2C)cc1 [MLS000688437-01] |  |  |  |  |  |  |  |  |  |  |  |  | 1.232 | 0.9346 | 1.03 | 1.051 | 0.8901 | 0.8878 | 0.8233 | 0.9077 | Burkin Assay in Myoblasts, signal relative to DMSO ([1]; 20 uM): 0.8203; Burkin Assay in Myoblasts, signal relative to DMSO ([1]; 40 uM): 0.8064; Burkin Assay in Myotubes, α7 integrin LacZ reporter signal relative to DMSO ([2]; 0.5 uM): 1.076; Burkin Assay in Myotubes, α7 integrin LacZ reporter signal relative to DMSO ([2]; 1 uM): 1.194; Burkin Assay in Myotubes, α7 integrin LacZ reporter signal relative to DMSO ([2]; 5 uM): 1.124; Burkin Assay in Myotubes, α7 integrin LacZ reporter signal relative to DMSO ([2]; 10 uM): 1.102; Burkin Assay in Myotubes, α7 integrin LacZ reporter signal relative to DMSO ([2]; 20 uM): 0.9929; Burkin Assay in Myotubes, α7 integrin LacZ reporter signal relative to DMSO ([2]; 40 uM): 1.034
8 | CCS(=O)(=O)N1CCN(c2ccc([N+](=O)[O-])c(NCC3CCCO3)c2)CC1 (stereo not drawn) [MLS000693370-01] |  |  |  |  |  |  |  |  |  |  |  |  |  |  |  |  |  |  |  |  | fold induction at 0.5 µM ([1]; Mus musculus, Myoblast, 48 h, 0.5 uM, read-out: Burkin Assay in Myoblasts, value relative to DMSO): 0.864; fold induction at 1 µM ([1]; Mus musculus, Myoblast, 48 h, 1 uM, read-out: Burkin Assay in Myoblasts, value relative to DMSO): 0.8; fold induction at 5 µM ([1]; Mus musculus, Myoblast, 48 h, 5 uM, read-out: Burkin Assay in Myoblasts, value relative to DMSO): 0.887; fold induction at 10 µM ([1]; Mus musculus, Myoblast, 48 h, 10 uM, read-out: Burkin Assay in Myoblasts, value relative to DMSO): 1.06; fold induction at 20 µM ([1]; Mus musculus, Myoblast, 48 h, 20 uM, read-out: Burkin Assay in Myoblasts, value relative to DMSO): 0.951; fold induction at 40 µM ([1]; Mus musculus, Myoblast, 48 h, 40 uM, read-out: Burkin Assay in Myoblasts, value relative to DMSO): 0.937; fold induction at 0.5 µM ([2]; Mus musculus, Myotube, 0.5 uM, read-out: Burkin Assay in Myotubes (signal relative to DMSO)): 1.11; fold induction at 1 µM ([2]; Mus musculus, Myotube, 1 uM, read-out: Burkin Assay in Myotubes (signal relative to DMSO)): 1.13; fold induction at 5 µM ([2]; Mus musculus, Myotube, 5 uM, read-out: Burkin Assay in Myotubes (signal relative to DMSO)): 1.16; fold induction at 10 µM ([2]; Mus musculus, Myotube, 10 uM, read-out: Burkin Assay in Myotubes (signal relative to DMSO)): 1.28; fold induction at 20 µM ([2]; Mus musculus, Myotube, 20 uM, read-out: Burkin Assay in Myotubes (signal relative to DMSO)): 1.15; fold induction at 40 µM ([2]; Mus musculus, Myotube, 40 uM, read-out: Burkin Assay in Myotubes (signal relative to DMSO)): 1.25; CMV-LACZ in Myotubes (β-galactosidase activity relative to DMSO) ([3]; 5 uM): 0.9783; CMV-LACZ in Myotubes (β-galactosidase activity relative to DMSO) ([3]; 10 uM): 0.9621; CMV-LACZ in Myotubes (β-galactosidase activity relative to DMSO) ([3]; 20 uM): 0.9947; CMV-LACZ in Myotubes (β-galactosidase activity relative to DMSO) ([3]; 40 uM): 1.1136
9 | C=CCN(CC=C)C(=O)c1ccc(OC2CCN(S(=O)(=O)N(C)C)CC2)cc1 [MLS000693729-01] | 0.9069 | 0.7902 | 0.8647 | 0.9088 | 0.9136 | 0.9194 | 0.8219 | 0.7707 | 1.119 | 1.144 | 0.9682 | 1.056 | 0.9722 | 1.057 | 0.9031 | 0.879 |  |  |  |  | 

Source: patent publication US9980943B2, “Methods of treating muscular dystrophy” (BOARD OF REGENTS OF THE NEVADA SYSTEM OF HIGHER EDUCATION, …, priority 2013, dated 2018)
